The values that follow come from PMC9227536, “Prediction of Pharmacokinetics of IDP-73152 in Humans Using Physiologically-Based Pharmacokinetics” (Pharmaceutics, 2022).

The nature of data set [1]: Unbound fraction in plasma (rapid equilibrium dialysis), human. The settings on record: humans plasma, 0.3, 1, 3 μM, RED 5 h, read-out: fu,p. The class given is in vitro ADME. How it is done:
(§1) The unbound fractions of IDP-73152 in various matrices were measured according to the manufacturer’s instructions for the rapid equilibrium dialysis (RED) device (ThermoFisher Scientific, Waltham, MA, USA). Briefly, IDP-73152 was added to the plasma or the microsomal/hepatocyte incubation buffer from various species (i.e., mouse, rat, dog, and human for microsomal incubation; rat for hepatocyte incubation) to obtain final concentrations of the compound at 0.3, 1, and 3 μM. After the membrane insert was placed in the RED plate, the solution containing IDP-73152 was added (400 µL) to the sample chamber, and the dialysis buffer (600 μL) was added to the buffer chamber. The RED plate was sealed with parafilm and then incubated at 37 °C in the orbital shaker (Lab Companion, Daejeon, Korea) at 100 rpm for 5 h. After a 50 μL aliquot was aspirated from both the sample and buffer chambers, an equal volume of protein-free buffer or blank medium was replaced in the aspirated sample or buffer to render the matrices compositionally identical. The IDP-73152 concentration in the buffer/sample chambers (i.e., CBuffer Chamber and CSample Chamber) was determined by an assay. Thus, the fraction unbound was defined as:(2) % Fraction unbound=(CBuffer Chamber/CSample Chamber)×100%

Data set [2] in a line: Blood partitioning (LC-MS/MS-based depletion method), human. The class given is in vitro ADME. The note with it: whole blood, humans blood, 0.3, 1, 3 μM, read-out: BP (blood-to-plasma concentration ratio). The procedure: In this study, the partitioning of IDP-73152 in blood samples obtained from mice, rats, dogs, and humans was determined using the LC-MS/MS-based depletion method with slight modifications. DP-73152 was added to an aliquot (1 mL) of blank blood or plasma at a final concentration of 0.3, 1, or 3 μM. The mixture was incubated at 37 °C in a water bath for 60 min. After the incubation, the plasma was separated by centrifugation of the blood samples for 5 min at 10,000× g/4 °C and stored at -80 °C until analysis. The blood-to-plasma concentration ratio (BP) was calculated using the equation:(3) BP=[…], where […] is the concentration of the compound at the corresponding blood concentration in the plasma, and CPL is the concentration from the plasma sample separated from the incubated blood.

Data set [3] has as its system vancomycin-resistant Enterococcus faecium. The settings on record: infected mice, twice-a-day dosing; cited from earlier work.
The nature of data set [4]: Stability in plasma, mouse. The class given is in vitro ADME. The note with it: mice plasma. The procedure:
as §1, with “manufacturer's” for “manufacturer’s”, “μL)” for “µL)”, “After a 50 μL aliquot was aspirated from both the sample and buffer chambers, an equal volume of protein-free buffer or blank medium was replaced in the aspirated sample or buffer to render the matrices compositionally identical.” left out, “Chamber)×100% When necessary, the stability of IDP-73152 in the matrix was also determined at 5 h. […] Accordingly, the kinetics of IDP-73152 instability were determined in the rat blood at a final concentration of 0.3 μM. […]” for “Chamber)×100%”

On to `CC(C)(C)[C@H](NC(=O)[C@H](CC1CCCC1)CN(O)C=O)C(=O)N1CCC(NCc2cc(F)c(F)cc2F)CC1` [IDP-73152], for which the fraction unbound at 5 h in data set [1] turned out to be 0.0744 ± 0.0019. For the same compound, in data set [2], the blood plasma ratio at 60 min was 1.24 ± 0.08. The “ED50 (oral dose at which the survival rate was 50%)” value in data set [3] is reported as 13.3 mg/kg. Also, the “percentage remaining in plasma at 5 h” value in data set [4] (5 h, 37 °C) is reported as 92.3 ± 2.7%. Moreover, the “stability in plasma” value in data set [4] (preliminary study) is given as “stable”.
